# Patent publication US9855239B2, “Methods for the treatment and prevention of age-related retinal dysfunction” (University of Washington, priority 2008, dated 2018)
# Entries after “also recorded” stand apart in the source; their conditions may differ.
# Experiments:
# rhodopsin/opsin = biological target: T1, rhodopsin/opsin (Mus musculus, UniProt P15409); assay: Purified rhodopsin/opsin analysis after long-term treatment; type: in vivo
# T1 construct: from tissue; host or cells: whole eyes of wild-type C57BL/6 female mice
# T1 sequence (P15409 whole entry): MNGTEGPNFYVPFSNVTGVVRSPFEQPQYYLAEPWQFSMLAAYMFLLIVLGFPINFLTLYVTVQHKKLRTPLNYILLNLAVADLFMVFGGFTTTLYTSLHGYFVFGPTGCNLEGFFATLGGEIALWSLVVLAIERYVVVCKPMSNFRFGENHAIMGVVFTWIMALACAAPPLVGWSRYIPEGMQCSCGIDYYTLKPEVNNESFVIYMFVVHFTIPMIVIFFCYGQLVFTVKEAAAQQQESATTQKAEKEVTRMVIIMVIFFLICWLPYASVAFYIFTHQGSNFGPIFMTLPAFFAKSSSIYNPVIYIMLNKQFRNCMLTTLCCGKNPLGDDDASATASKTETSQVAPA
# Description: (§1) Two weeks after the last gavage with either, 9-cis-R-Ac, all-trans-R-Ac or vehicle, groups of 48 hr dark-adapted mice were analyzed for recovery of dark adaptation after light exposure, purified rhodopsin/opsin and retinoids in the eye and retinal morphology (FIG. 1C; Methods). Mice were exposed to light of intensity 500 cd·m^−2 that bleached ˜90% of rhodopsin, anesthetized and monitored by ERG for one hr to evaluate recovery of dark adaptation. Rhodopsin was purified and rhodopsin/opsin ratios was determined. Retinoid analyses were performed on dissected eyes removed at 0, 10, 30, and 60 min after exposure to the same amount of light. Mice used to evaluate retinal morphology were not exposed to photobleaching prior to analysis.
# Rhodopsin purification was done under dim red light as previously described (Zhu, L., et al. J Biot Chem, 279, 53828-53839 (2004)). Purified anti-rhodopsin C terminus antibody 1D4 (MacKenzie, D., Arendt, A., Hargrave, P., McDowell, J. H. & Molday, R. S. Biochemistry, 23, 6544-6549 (1984)) was immobilized on CNBr-activated Sepharose 4B and a 4.6×12-mm column was packed with 2 mg of 1 D4 antibody/ml of Sepharose beads. Mouse whole eyes were homogenized in 137 mM NaCl, 5.4 mM Na2HPO4, 2.7 mM KCl and 1.8 mM KH2PO4 (pH 7.5) with a glass-to-glass homogenizer. Soluble proteins in the supernatant were removed by centrifugation at 14,000×g for 5 min and the pellet was solubilized in buffer containing 1% dodecyl-β-maltoside in 10 mM Bis-Tris propane (pH 7.5) containing 500 mM NaCl. The supernatant was cleared by centrifugation at 125,000×g for 20 min and loaded onto an antibody 1 D4-packed immunoaffinity column which was then thoroughly washed at a flow rate of 0.5 ml/min with 10 mM Bis-Tris propane (pH 7.5) containing 500 mM NaCl and 0.1% dodecyl-β-maltoside. […] Purified rhodopsin concentration was determined at 500 nm and total amount of opsin and rhodopsin at 280 nm with a Hewlett-Packard 8452A UV-visible spectrophotometer (Palczewski, K., Carruth, M. E., Adamus, G., McDowell, J. H. & Hargrave, P. A. Vision Research, 30, 1129-1137 (1990)).
# C57BL/6 female mice = assay: Recovery of ERG response (dark adaptation) after bleach, long-term treatment; type: in vivo, mouse; conditions: 500 cd·m^−2 for 3 min, 60 min dark adaptation
# Description: Recovery of the ERG response (dark adaptation) following bleach was measured by monitoring the amplitude of a-waves after retinal exposure to intense constant illumination (500 cd·m^−2, ˜90% bleached rhodopsin) for 3 min. […] Retinoid kinetics in the eyes of each group were quantitatively evaluated during 60 min of dark adaptation after 3 min of bleaching at four subsequent time points of dark adaptation (0, 10, 30, and 60 min). […] Neither 9-cis-retinal nor 9-cis-retinyl esters were found in eyes from untreated groups (data not shown).
# Six groups of mice were studied (FIG. 1B).
# as §1
# ERGs of anesthetized mice were recorded as previously reported.
# [1] = A2E accumulation in eyes after long-term treatment; type: in vivo, mouse
# Description: To evaluate the safety of long-term administration of 9-cis-R-Ac, A2E accumulation was measured (FIG. 6A), because retinals spontaneously condense to this compound (Mata, N. L., Weng, J. & Travis, G. H. Proceedings of the National Academy of Sciences of the United States of America 97, 7154-7159 (2000); Parish, C. A., Hashimoto, M., Nakanishi, K., Dillon, J. & Sparrow, J. Proceedings of the National Academy of Sciences of the United States of America 95, 14609-14613 (1998)).
# All experimental procedures related to extraction, derivatization and separation of retinoids were carried out under dim red light provided by a Kodak No. 1 safelight filter (transmittance>560 nm) as described previously (Van Hooser, J. P., et al. Proceedings of the National Academy of Sciences of the United States of America 97, 8623-8628 (2000); Van Hooser, J. P., et al. J Biol Chem, 277, 19173-19182 (2002); Maeda, A., et al. J Biol Chem 280, 18822-18832 (2005); Van Hooser, J. P., Garwin, G. G. & Saari, J. C. Methods Enzymol 316, 565-575 (2000)). […] The combined extracts were dried under argon and retinoids were separated by normal phase HPLC (Beckman, Ultrasphere-Si, 5 μm, 4.6×250 mm) with 10% ethyl acetate and 90% hexane at a flow rate of 1.4 ml/min and detected at 325 nm by an HPI 100 HPLC with a diode array detector and HP Chemstation A.03.03 software. […]
smiles,measurement,setting,value
"CC(=O)OC/C=C(C)/C=C/C=C(C)\C=C\C1=C(C)CCCC1(C)C [9-cis-R-Ac, 9-cis-retinyl acetate]",amounts of purified protein recovered,"rhodopsin/opsin; 10-month-old treated mice, N1 versus C1",only slightly attenuated
same,amounts of purified protein recovered,"rhodopsin/opsin; 14 months of age, N2 and N3 vs C2",significantly lower
same,regeneration ratios (rhodopsin/opsin) and total amounts of purified rhodopsin,"rhodopsin/opsin; long-term treatment, 10 and 14 months of age, control vs treated",no significant differences
same,recovery of ERG a-wave response (dark adaptation) after bleach,"C57BL/6 female mice; 10 months of age, N1 vs C1",significantly faster; also recorded: significantly higher; also recorded: restored the rate of recovery to that seen in 4-month-old mice
same,recovery of ERG a-wave response (dark adaptation) after bleach,"C57BL/6 female mice; 14 months of age, treated (9-cis-R-Ac: N2 and N3) vs C2",significantly faster; also recorded: significantly higher recovery rate
same,amounts of A2E in eyes,"[1]; all experimental groups (C1, C2, N1, N2, N3), FIG. 6B","did not differ significantly among all groups with the exception of N3, where they were slightly lower"
same,A2E and iso-A2E levels in eyes,"[1]; long-term treatment, treated vs control at 10 and 14 months of age",did not accumulate
